Columns and labels:
[1] = tested on: aminoterminal propeptide of procollagen type III (PIIINP); experiment: Serum PIIINP radioimmunoassay in BDO rats; type: in vivo, rat; details: LU-treated BDO rats, dose-dependent
Protocol: Female adult wistar rats, average weight 206±19 g, underwent the following microsurgical procedure under an operating microscope (OPMI 6-2, Zeiss, Germany) (B. Gerling, M. Becker, J. Waldschmidt, D. Schuppan (1996). J. Hepatol. 25:79-84; G. Boigk, L. Stroedter, H. Herbst H, et al. (1997). Hepatology 26:643-639.): 1. midline abdominal incision following anaesthesia with 100 mg/kg ketamine-hydroochloride (Ketanest®, Parke-Davis, Germany) and 10 mg/kg 5,6-dihydro-2-(2,6-xylidino)-4H-1,3-thiazine-hydrochloride (Rompun®, Bayer, Germany); 2. dissection of the common bile duct, insertion of a teflon catheter (Abbocath -T 26 G, venisystems, U.S.A.) and placement of a distal complete and a proximal incomplete ligature with 5-0 silk (Permahand , Ethicon, Germany); 3. retrograde injection of sodium-amidotrizoate (Ethibloc®, Ethicon Germany) at a dose of 0.02 ml/100 g body weight; 4. removal of the catheter, closure of the proximal ligature, scission of the bile duct between the ligatures and wound closure. After bile duct occlusion (BDO), animals received normal chow (Altromin®, Lage, Germany) and were allowed free access to water. […] The following therapeutic groups were formed: 1. BDO and LU at 80 mg/kg/d for 6 weeks (BDO 80/1-6:n=20); 2. […]
Standard laboratory parameters were measured by our in-hospital clinical chemical department, using an automated analyser (BM/Hitachi 747). […]

[2] = Tolerability in BDO and sham-operated rats (death, renal toxicity, food consumption, measured parameters); type: in vivo
Protocol: (§1) Female adult wistar rats, average weight 206±19 g, underwent the following microsurgical procedure under an operating microscope (OPMI 6-2, Zeiss, Germany) (B. Gerling, M. Becker, J. Waldschmidt, D. Schuppan (1996). J. Hepatol. 25:79-84; G. Boigk, L. Stroedter, H. Herbst H, et al. (1997). Hepatology 26:643-639.): 1. midline abdominal incision following anaesthesia with 100 mg/kg ketamine-hydroochloride (Ketanest®, Parke-Davis, Germany) and 10 mg/kg 5,6-dihydro-2-(2,6-xylidino)-4H-1,3-thiazine-hydrochloride (Rompun®, Bayer, Germany); 2. dissection of the common bile duct, insertion of a teflon catheter (Abbocath -T 26 G, venisystems, U.S.A.) and placement of a distal complete and a proximal incomplete ligature with 5-0 silk (Permahand , Ethicon, Germany); 3. retrograde injection of sodium-amidotrizoate (Ethibloc®, Ethicon Germany) at a dose of 0.02 ml/100 g body weight; 4. removal of the catheter, closure of the proximal ligature, scission of the bile duct between the ligatures and wound closure. After bile duct occlusion (BDO), animals received normal chow (Altromin®, Lage, Germany) and were allowed free access to water. […] The following therapeutic groups were formed: 1. BDO and LU at 80 mg/kg/d for 6 weeks (BDO 80/1-6:n=20); 2. BDO and LU at 80 mg/kg/d from week 4-6 of BDO (BDO 80/4-6:n=20); 3. BDO and LU at 10 mg/kg/d (sham 80/ 1-6:n=10), rats without medication (control: n=10) and bile duct occluded animals without treatment for 6 weeks (BDO: n=20) served as controls.
Early mortality (within 1 h to 3 days) in rats with BDO was due to local infection and amounted to 9%. […] After 6 weeks rats were sacrificed under ketanest(rompun-anaesthesia by puncture of the right ventricle and exsanguination. Heart, liver, spleen and kidneys were weighed, and 1-2 g pieces of the left and the right liver lobes fixed in 4% formalin for histology and hydroxyproline (HYP) determinations.
Rats with sham operation and rats with BDO were fed the oral endothelin A receptor antagonist LU 135252 (LU).
However, liver collagen (both as relative and total liver collagen content), which was increased 6- and 12-fold above normal, resp., in the untreated group with BDO, was reduced by 50-55% in rats on 80 mg LU/kg/d over the 6 weeks of BDO (p<0.001) (FIG. 1). […] Since contrary to the sham-operated rats, LU at 80 mg/kg/d which represents a high dose, caused death dose-dependently due to rental tubular necrosis in 50% and 25% of the two treatment groups, resp., a second experiment with a lower dose (10 mg/kg/d) over 6 weeks of BDO was performed.

[3] = tested on: liver collagen; experiment: Liver collagen (hydroxyproline) content in BDO rats; type: in vivo, rat
Protocol: as §1, with “controls. […]” for “controls.”
Hydroxyproline (HYP) was quantified in duplicates from 0.2 g of formalin-fixed liver as described (d. Schuppan, J. M. Dumont, K. Y. Kim, et al (1986). J. Hepatol. 3:27-37; C. Genovese; D. Rowe; B. Kream (1984). Biochemistry 23. 6210-6216.). […] Absorption was read at 558 nm and HYP concentrations were determined from a standard curve with 0 to 1.6 μg HYP (Merck, Germany). The hepatic HYP concentration was calculated using the formula [formula]
and the total liver HYP content calculated by multiplication with the liver weight.

COc1cc(OC)nc(O[C@H](C(=O)O)C(OC)(c2ccccc2)c2ccccc2)n1 [LU]
Lowering of serum PIIINP [1]: 20-50% | Death or renal toxicity ([2]; BDO rats, 10 mg/kg/d over 6 weeks): no death or renal toxicity was observed | Death due to renal tubular necrosis (share of treatment group) ([2]; BDO rats, LU 80 mg/kg/d for 6 weeks): 50% | Death due to renal tubular necrosis (share of treatment group) ([2]; BDO rats, LU 80 mg/kg/d from week 4-6): 25% | Food consumption by the animals ([2]; LU mixed with the chow): did not alter food consumption | Measured parameters (body and organ weights, liver collagen, liver histology, clinical chemical values) ([2]; sham-operated rats, LU 80 mg/kg/d for 6 weeks): did not alter any of the measured parameters | Reduction of relative liver collagen ([3]; 10 mg/kg/d over 6 weeks of BDO): 35% | Reduction of hepatic collagen ([3]; 80 mg LU/kg/d from week 4-6 after BDO, p<0.001): ~50% | Reduction of liver collagen (both as relative and total liver collagen content) ([3]; 80 mg LU/kg/d over the 6 weeks of BDO, vs untreated BDO, p<0.001): 50-55%
